Measurements reported in PMC12771125, “Compounds Reducing Human Sperm Motility as Potential Nonhormonal Contraceptives Identified Using a High-Throughput Phenotypic Screening Platform” (ACS Omega, 2025).
≈ marks a conversion by molar mass, not a printed value. Like-named read-outs stand apart in the source and are kept apart here.

Key:
[1] = system: human sperm; assay: Reduction of sperm motility (RSM) high-throughput phenotypic assay; assay type: cell-based; settings: Homo sapiens, reduction of progressive sperm motility relative to control
Method: Using our previously established phenotypic human sperm motility screening platform, we screened a large subset (62,621 compounds) of one of our in-house diversity libraries (National Phenotypic Screening Centre (NPSC) Diversity Set) (Figure A,B). Briefly, human sperm are collected, isolated from semen, distributed into 384-well plates with test compounds, time-lapse images of sperm movement are recorded using a high-content imager, and progressive motility parameters are calculated using custom data analysis software. Sperm motility is complicated, and the mechanisms underpinning its regulation are not fully understood. Progressive motility, which is a measurement of the movement of forward progression of sperm, is most closely linked to sperm quality, and the percentage of progressively motile sperm compared to control is therefore the parameter utilized during the work described in this paper. […]
We used an HTS screening platform to assess the motility of live human spermatozoa. The platform and its development are described in detail in Gruber et al. , and summarized below in brief. The platform was used to screen compound libraries specifically focusing on reduction in motility. Interesting compounds were examined in further detail as possible starting points for a medicinal chemistry program. The experimental design is illustrated in Figure .
Donors were local to the Dundee area, over the age of 18, and had no known fertility problems and normal sperm concentration, motility and semen characteristics according to WHO 2021 criteria. Special category personal data for donors, such as ethnic origin, was not recorded in accordance with ethical approval and UK GDPR. Samples were obtained by masturbation, after sexual abstinence of 2–5 days, and delivered to the research laboratory within one h of production. Samples were allowed to liquefy at 37 °C for 15–30 min prior to preparation by discontinuous density gradient centrifugation (DGC). […] A minimum of 3 prepared donor samples were routinely pooled to reduce donor-to-donor variability for primary screening assays. Pooled samples were incubated for 3 h at 37 °C under noncapacitating conditions.
In brief, screening batches of cells were transferred to a robotic platform (HighRes Biosolutions Inc.) and maintained during the screen at 37 °C at 5% CO2. Assay-ready 384-well plates containing compounds were prepared prior to the screen and filled with approximately 10,000 spermatozoa (20 μL) per well using a liquid handling system (MultiDrop Combi; ThermoFisher). These plates were incubated for 10 min prior to imaging. The HTS system utilized a Yokogawa CV7000 Cell Voyager high-throughput microscope to record time-lapse images from 2 positions in each well. An adaptation of a tracking algorithm, Trackpy v0.4.1 was utilized to track individual spermatozoa within each well and obtain kinematic parameters. Within the compound-test plates, DMSO was used as the vehicle control.
All steps were performed as previously described. , In summary, data from every compound well were normalized to those from in-plate DMSO controls (wells containing the same amount of DMSO as compound wells). Two positions were recorded in every well, and the average of those positions was used for calculating % of control (median value/DMSO median) × 100. Each plate contained 16 DMSO control wells. Median curvilinear velocity (VCL) was used as the primary readout for the NPSC Diversity Set screened at 6 μM, and percentage progressive motility (PM) was used for all other libraries screened. Hits from the primary screening were chosen based on the % change compared to the control. In these experiments, an RSM of ≥20% compared to negative controls (DMSO) was chosen as a cutoff for potential progression.
In a screening program of this scale, a significant number of compounds are likely to have a negative effect on sperm motility, but a number will show general toxicity. […]

[2] = system: HepG2 cells; assay: HepG2 cytotoxicity assay (resazurin, 72 h); assay type: cell-based, human; settings: Homo sapiens, HepG2, 72 h; read-out: HepG2 pEC50 (converted)
Source text: Our overarching aims for investigating our chemical series and deciding which ones had the potential for further progression were to achieve adequate potency in our motility assay, suitable solubility, and minimal cytotoxicity in HepG2 cells. This third point was often the most challenging, as multiple series had cytotoxicity in HepG2 cells. This observation is perhaps not surprising; many potential targets in sperm cells can also be found in somatic cells. Our cytotoxicity assay is run with an incubation time of 72 h, to give time for gross cytotoxic effects to become apparent.
Compound dilution curves were plated directly using a Labcyte Echo 550 acoustic dispenser (125 nL) in 384-well white clear-bottom plates (Greiner). HepG2 cells (ATCCHepG2 HB-8065) were cultured in minimum essential medium (supplemented with glutamax) with 10% FCS and plated (25 μL) using a WellMate dispenser ([…]) and incubated for 72 h. Doxorubicin was used as a positive control drug. Resazurin was then added to each well at a final concentration of 45 μM, and fluorescence was measured using a PHERAstar LS (BMG Labtech) after 4 h of further incubation (excitation of 528 nm and emission of 590 nm). Raw data were normalized to controls and expressed as % growth.
Figure S2: Concentration-response curves from high throughput HepG2 viability assay. Each compound was tested in duplicate and the curves of each replicate are shown. The reported values in the tables are an average of the 2 pEC50 values obtained. […]
determine 0% effect, positive control used to determine 100% effect).
Hit compounds 1a, 6b and 7a were repurchased from commercial suppliers including enamine and […]

[3] = Aqueous solubility; assay type: physicochemical
[4] = 10 min, 10 min incubation, reported <X (neg. log of top concentration) if largest reduction <70%, read-out: RSM pEC50 10 mins (converted)
[5] = 3 h incubation, reported <X if largest reduction <70%, read-out: RSM pEC50 3 hrs (converted)
[6] = 6 h incubation, reported <X if largest reduction <70%, read-out: RSM pEC50 6 hrs (converted)

Row | EC50 [1, 4] [µM] | EC50 [1, 5] [µM] | EC50 [1, 6] [µM] | solubility [3] [µM] | SMILES | EC50 [2] [µM]
1 | > 31.6 | > 31.6 | 1.58 | 1.1 (≈ 0.323 µg/mL) | Cc1ccc(Nc2cc(C)nn2-c2nc(C)cc(C)n2)cc1 [Compound 6b, 1-(4,6-Dimethylpyrimidin-2-yl)-3-methyl-N-(p-tolyl)-1H-pyrazol-5-amine] | > 100
2 | > 31.6 | > 31.6 | > 31.6 | 81 (≈ 20.2 µg/mL) | Cc1cc(Nc2ccccc2)n(-c2ccccc2)n1 [Compound 6c] | > 100
3 | > 31.6 | > 31.6 | > 31.6 | 15 (≈ 4.61 µg/mL) | Cc1cc(C)nc(-n2nc(C)cc2NC(=O)c2ccccc2)n1 [Compound 6d] | > 100
4 | > 31.6 | > 31.6 | > 31.6 | 240 (≈ 66.6 µg/mL) | Cc1cc(NC(=O)c2ccccc2)n(-c2ccccc2)n1 [Compound 6e] | > 100
5 | > 25.1 | > 25.1 | 1.58 | 10 (≈ 2.89 µg/mL) | c1ccc(-c2cc(N3CCCCC3)c3ccccc3n2)nc1 [Compound 7a, 4-(Piperidin-1-yl)-2-(pyridin-2-yl)quinoline] | > 100
6 | > 31.6 | > 31.6 | > 31.6 | 0.6 (≈ 0.173 µg/mL) | c1ccc(-c2cc(N3CCCCC3)c3ccccc3n2)cc1 [Compound 7b] | > 100
7 | > 31.6 | > 31.6 | > 31.6 | 57 (≈ 16.5 µg/mL) | c1cncc(-c2cc(N3CCCCC3)c3ccccc3n2)c1 [Compound 7c] | > 100
8 | > 31.6 | > 31.6 | > 31.6 | 140 (≈ 41.6 µg/mL) | c1ccc2c(N3CCCCC3)cc(N3CCOCC3)nc2c1 [Compound 7d] | > 100
9 | > 31.6 | > 31.6 | > 31.6 | 8.1 (≈ 2.39 µg/mL) | c1ccc2c(N3CCCCC3)cc(N3CCCCC3)nc2c1 [Compound 7e] | > 100
10 | > 31.6 | > 31.6 | > 31.6 | 220 (≈ 61.9 µg/mL) | c1ccc2c(N3CCCCC3)cc(N3CCCC3)nc2c1 [Compound 7f] | 50.1
11 | > 31.6 | > 31.6 | > 31.6 | 210 (≈ 65.2 µg/mL) | CN1CCN(c2cc(N3CCCCC3)c3ccccc3n2)CC1 [Compound 7g] | 50.1

Second part, the molecule before the results:

Row | SMILES | EC50 [1, 4] [µM] | EC50 [1, 5] [µM] | EC50 [1, 6] [µM] | solubility [3] [µM] | EC50 [2] [µM]
12 | Cc1ccc2sc(NC(=O)C3CC3)nc2c1C [Compound 4m] | > 31.6 | > 31.6 | > 31.6 | 5.5 (≈ 1.35 µg/mL) | > 100
13 | CCN(CC)C(=O)c1cc(Nc2ccnc3cc(Cl)ccc23)ccc1O [Compound 5d] | > 31.6 | > 31.6 | > 31.6 | 4.9 (≈ 1.81 µg/mL) | > 100
14 | Oc1ccc(Nc2ccnc3cc(Cl)ccc23)cc1 [Compound 5e] | > 31.6 | > 31.6 | 0.316 | 3.5 (≈ 0.948 µg/mL) | 79.4
15 | OC1CCC(Nc2ccnc3cc(Cl)ccc23)CC1 (centres unmarked) [Compound 5f] | > 31.6 | > 31.6 | > 31.6 | 210 (≈ 58.1 µg/mL) | > 100
16 | COc1ccc(Nc2ccnc3cc(Cl)ccc23)cc1 [Compound 5g] | > 31.6 | > 31.6 | > 31.6 | 4.9 (≈ 1.4 µg/mL) | > 100
17 | Oc1ccc(Nc2ccnc3cc(Cl)ccc23)cn1 [Compound 5i] | > 31.6 | > 31.6 | > 31.6 | 220 (≈ 59.8 µg/mL) | > 100
18 | Oc1ccc(Nc2ccnc3cc(Cl)ccc23)nc1 [Compound 5j] | > 31.6 | > 31.6 | > 31.6 | 6.7 (≈ 1.82 µg/mL) | > 100
19 | Clc1ccc2c(Nc3ccc4[nH]ccc4c3)ccnc2c1 [Compound 5k] | > 31.6 | > 31.6 | > 31.6 | 11 (≈ 3.23 µg/mL) | 12.6
